From ChEMBL document CHEMBL6134789, “Asymmetric imidazole-4,5-dicarboxamide derivatives as SARS-CoV-2 main protease inhibitors: design, synthesis and biological evaluation” (RSC Med Chem, 2024)

Columns and labels:
[1] = biological target: Replicase polyprotein 1ab (Severe acute respiratory syndrome coronavirus 2) (UniProt P0DTD1); test: Inhibition of recombinant SARS-CoV-2 main protease at 1 uM using Dabcyl-KTSAVLQSGFRKM{Glu(Edans)} as substrate preincubated for 10 mins followed by substrate addition and measured at 60 secs interval for 30 mins by fluorogenic assay relative to control; settings: time 40.0 min
[2] = biological target: T1, Replicase polyprotein 1ab (Severe acute respiratory syndrome coronavirus 2, UniProt P0DTD1); test: Inhibition of recombinant SARS-CoV-2 main protease using Dabcyl-KTSAVLQSGFRKM{Glu(Edans)} as substrate preincubated for 10 mins followed by substrate addition and measured at 60 secs interval for 30 mins by fluorogenic assay
16HBE14o- = test: Cytotoxicity against human 16HBE14o- cells assessed as reduction in cell viability at 100 uM measured after 24 hrs by MTT assay; format: toxicity, cell-based
[3] = biological target: T1, Replicase polyprotein 1ab; test: Competitive inhibition of recombinant SARS-CoV-2 main protease using varying levels of Dabcyl-KTSAVLQSGFRKM{Glu(Edans)} as substrate by Lineweaver-Burk plot analysis

Row | Structure (SMILES) | inhibition [1] [%] | IC50 [2] [µM] | Activity (16HBE14o-) | Ki [3] [µM]
1 | O=c1c2ccccc2[se]n1-c1ccccc1 | 100 | – | – | –
2 | Cc1cccc(C)c1OCC(=O)N[C@@H](Cc1ccccc1)[C@@H](O)C[C@H](Cc1ccccc1)NC(=O)[C@H](C(C)C)N1CCCNC1=O | 33 | – | – | –
3 | CC(C)c1nc(CN(C)C(=O)N[C@H](C(=O)N[C@@H](Cc2ccccc2)C[C@H](O)[C@H](Cc2ccccc2)NC(=O)OCc2cncs2)C(C)C)cs1 | 24 | – | – | –
4 | O=C(Nc1ccc(Cl)cc1)c1[nH]cnc1C(=O)N1CCOCC1 | 3 | – | – | –
5 | O=C(Nc1ccc(Cl)c(Cl)c1)c1[nH]cnc1C(=O)N1CCOCC1 | 33 | 44.6 | Non-toxic | –
6 | Cc1nc(C(=O)N2CCOCC2)c(C(=O)Nc2cc(Cl)c(Cl)cc2Cl)[nH]1 | 39 | 13.3 | Non-toxic | –
7 | O=C(Nc1ccccc1)c1[nH]cnc1C(=O)N1CCOCC1 | 15 | – | – | –
8 | O=C(Nc1cc(Cl)ccc1Cl)c1[nH]cnc1C(=O)N1CCOCC1 | 18 | – | – | –
9 | Cc1nc(C(=O)N2CCOCC2)c(C(=O)Nc2ccc(Cl)cc2)[nH]1 | 38 | 4.79 | Non-toxic | 15
10 | O=C(Nc1cc(Cl)c(Cl)cc1Cl)c1[nH]cnc1C(=O)N1CCOCC1 | 16 | – | – | –
11 | Cc1nc(C(=O)N2CCOCC2)c(C(=O)Nc2ccc(Cl)c(Cl)c2)[nH]1 | 33 | 22.9 | – | –
12 | Cc1nc(C(=O)N2CCOCC2)c(C(=O)Nc2cc(Cl)ccc2Cl)[nH]1 | 38 | 8.43 | Non-toxic | –
13 | Cc1nc(C(=O)N2CCOCC2)c(C(=O)Nc2ccccc2)[nH]1 | 24 | – | Non-toxic | –
